Test system: specific bacteria
Experiment: Microbiological method for B6 (Official Method 961.15, Modified): signal response of similar molecules
Assay type: cell-based
Conditions: microbiological B6 assay; for Signal Response in Microbiological Method: Response, %: B6 (pyridoxine) given as 100; for response in microbiological method compared with B6: statement in words
Excerpt: The often low concentrations of vitamins in foods can make measuring the level of vitamins in various foods difficult. For example, the low concentration of B vitamins in infant formula makes it difficult to be measured by traditional measurement techniques such as HPLC. Currently, microbiological methods for measuring B vitamins are widely used at laboratories. This method is based on the growth of specific bacteria in the presence of a specific B vitamin and can only be measured one analyte per assay. The analysis process may take more than 30 hours. Poor reproducibility is another disadvantage. It is not unusual for a bacterial response to vary with different compounds and show low specificity. Monitoring different chemical forms. Current microbiological method have less specificity, such as those described in Official Method 961.15 (Modified), Official Methods of Analysis of AOAC International, 17th ed., AOAC International, Gaithersburg Md. (2000). In the case of B6, for example, other similar molecules may have a similar response. […] However, these compounds can be distinguished by LC/MS/MS without any problem in real samples such as milk.

Row | Compound | Signal Response in Microbiological Method: Response, % [%] | response in microbiological method compared with B6
1 | Cc1ncc(CO)c(C=O)c1O [Pyridoxal, pyridoxal] | 112 | response as strong as B6
2 | Cc1ncc(CO)c(CN)c1O [Pyridoxamine, pyridoxamine] | 84 | response as strong as B6
3 | Cc1ncc(CO)c(CO)c1O [B6, pyridoxine, pyridoxine] | 100 | 
4 | Cc1ncc(CO)c(C(=O)O)c1O [Pyridoxic acid, 4-pyridoxic acid] | 0 | 

Source: US20090203145A1, “METHODS FOR ANALYSIS OF VITAMINS” (priority 2008, published 2009)
